The values that follow come from patent US11241436B2, “Autophagy inducers for treatment of CNS conditions” (Northwestern University, priority 2017, dated 2022).

The structures appear in SMILES notation.

In this assay the test system is LC3. The assay is described as follows: Promega Autophagy Assay System (HiBiT-tagged LC3 reporter, autophagy flux). Format: cell-based. The following applies: LC3 reporter signal; decrease = increased autophagy. The text has this: The Promega Augophagy Assay System uses LC3 to monitor the autophagy process. […] LgBiT is a […] recombinant protein derived from NanoLuc. When HiBiT associates with LgBiT, a strong luciferase activity is reconstituted. An increase in autophagy will accelerate the degradation of LC3 reporter which decreases the assay signal. In contrast, inhibition of autophagy causes the accumulation of LC3 which will increase the reporter levels and assay signal.
On the technique in general: With HiBiT, luminescence reflects the tagged protein that the partner subunit can reach.

As usually defined, the AC50 is the midpoint of the concentration-response curve, whichever way the signal moves. Higher therefore signals activity only at high concentration. The compound `COc1ccc(Cn2c(-c3ccccc3)c(-c3ccccc3)c3c(=N)n(CCCCO)cnc32)cc1` had an AC50 of 10.3 µM.
As for `COCCn1cnc2c(c(-c3ccccc3)c(-c3ccccc3)n2CCc2ccccc2)c1=N`, half-maximal activity (AC50) was put at 20.6 µM.
Regarding `Cc1c(C)n(Cc2ccccc2)c2ncn(C3CCOCC3)c(=N)c12`, the half-maximal activity concentration (AC50) turned out to be 23.1 µM.
The same measure for `CCOC(CCCn1cnc2c(c(-c3ccccc3)c(-c3ccccc3)n2Cc2ccc(OC)cc2)c1=N)OCC`: 20.6 µM; for `N=c1c2c(-c3ccccc3)c(-c3ccccc3)n(Cc3ccccc3)c2ncn1CCC1CCC(O)CC1` (centres unmarked): 1.84 µM.
Turning to `COc1ccc(Cn2c(-c3ccccc3)c(-c3ccccc3)c3c(=N)n(C4CCOCC4)cnc32)cc1`, the AC50 was 2.59 µM.
On to `C[C@H]([C@@H](O)c1ccccc1)n1cnc2c(c(-c3ccccc3)c(-c3ccccc3)n2Cc2ccccc2)c1=N`, for which the AC50 came out at 29.1 µM.
Compound `Cc1ccc(-c2c(C(=O)CF)n(CCCO)c3ncnc(N)c23)cc1` gave an AC50 of 20.6 µM.
As to `N=c1c2c(-c3ccccc3)c(-c3ccccc3)n(CC3CC3)c2ncn1CC1CCOCC1`, the AC50 turned out to be 20.6 µM.
In the case of `COc1ccc(-c2c(-c3ccc(OC)cc3)n(Cc3ccccc3)c3ncn([C@@H]4CCCC[C@H]4CO)c(=N)c23)cc1`, the AC50 was determined as 20.6 µM.
The same measure for `N=c1c2c(-c3ccccc3)c(-c3ccccc3)n(Cc3ccccc3)c2ncn1C1CCOCC1`: 2.31 µM; for `N=c1c2c(-c3ccccc3)c(-c3ccccc3)n(Cc3ccccc3)c2ncn1CCN`: 13 µM; for `N=c1c2c(-c3ccccc3)c(-c3ccccc3)n(CC3CCCCC3)c2ncn1C[C@H]1CCCC[C@@H]1O`: 0.366 µM.
The same measure for `COc1ccc(Cn2c(-c3ccccc3)c(-c3ccccc3)c3c(=N)n(CC4CCOCC4)cnc32)cc1`: 9.2 µM.
With `CN(C)CCn1cnc2c(c(-c3ccccc3)c(-c3ccccc3)n2CCc2ccccc2)c1=N`, the activity was half-maximal at 5.17 µM (AC50).
As for `COCCn1cnc2c(c(-c3ccccc3)c(-c3ccccc3)n2Cc2ccccc2)c1=N`, the figure is 13 µM; as for `N=c1c2c(-c3ccccc3)c(-c3ccccc3)n(Cc3ccc(OC(F)(F)F)cc3)c2ncn1C1CCOCC1`, 9.2 µM; as for `N=c1c2c(-c3ccccc3)c(-c3ccccc3)n(Cc3ccccc3)c2ncn1C[C@@H]1CCCC[C@H]1O`, 13 µM.
Compound `COc1ccc(CCn2cnc3c(c(-c4ccccc4)cn3Cc3ccccc3)c2=N)cc1OC` registered a concentration at half-maximal activity (AC50) of 16.4 µM.
As to `N=c1c2c3c(n(CCc4ccccc4)c2ncn1CCCO)CCCC3`, the activity was half-maximal at 18.4 µM (AC50).
Turning to `COCCn1cnc2c(c(-c3ccccc3)cn2Cc2ccccc2)c1=N`, the activity was half-maximal at 11.6 µM (AC50).
As for `N=c1c2c(-c3ccccc3)c(-c3ccccc3)n(CC3CCCCC3)c2ncn1CC1CCOCC1`, the figure is 14.6 µM; as for `CC[Si](CC)(CC)OCCCn1cnc2c(c(-c3ccccc3)cn2Cc2ccc(Br)cc2)c1=N`, 13 µM.
The same measure for `COc1ccc(-c2c(-c3ccc(OC)cc3)n(Cc3ccccc3)c3ncn(C4CCOCC4)c(=N)c23)cc1`: 23.1 µM.
In turn, `CCOC(CCCn1cnc2c(c(-c3ccccc3)c(-c3ccccc3)n2CCc2ccccc2)c1=N)OCC` registered a concentration at half-maximal activity (AC50) of 13 µM.
As for `COC(Cn1cnc2c(c(-c3ccccc3)c(-c3ccccc3)n2Cc2ccccc2)c1=N)OC`, half-maximal activity (AC50) was put at 0.231 µM.
The same measure for `N=c1c2c(-c3ccc4c(c3)OCO4)c(-c3ccc4c(c3)OCO4)n(Cc3ccccc3)c2ncn1C1CCOCC1`: 18.4 µM.
Consider `COC1CCC(n2cnc3c(c(-c4ccccc4)c(-c4ccccc4)n3Cc3ccc(OC(F)(F)F)cc3)c2=N)CC1` (centres unmarked), for which the AC50 was 2.91 µM.
As for `N=c1c2c(-c3ccccc3)c(-c3ccccc3)n(Cc3ccccc3)c2ncn1CC1CCOC1` (centres unmarked), the figure is 20.6 µM; as for `COC(Cn1cnc2c(c(-c3ccccc3)c(-c3ccccc3)n2CCc2ccccc2)c1=N)OC`, 23.1 µM; as for `CO[C@H]1CC[C@H](n2cnc3c(c(-c4ccccc4)c(-c4ccccc4)n3Cc3ccccc3)c2=N)CC1`, 2.91 µM.
As for `N=c1c2c(-c3ccccc3)c(-c3ccccc3)n(Cc3ccccc3)c2ncn1CCCN1CCN(c2ccccc2)CC1`, the figure is 29.1 µM.
